Legend:
M71 OR = target: T1, M71 OR (Mus musculus, UniProt Q60893); assay: In vivo synaptophluorin (SpH) imaging of odor-evoked glomerular activity in 4•M71Cα mice; settings: for efficacy [(dF/F)max]: 0.44 uM
T1 construct: the increase of OSNs expressing the M71 OR results in the coalescence of labeled axons; expressed in transfected cells; host or cells: olfactory sensory neurons of living transgenic mice (4•M71Cα, 5•M71Cα), made by pronuclear injection of the M71 minigene
T1 sequence (Q60893 1-309): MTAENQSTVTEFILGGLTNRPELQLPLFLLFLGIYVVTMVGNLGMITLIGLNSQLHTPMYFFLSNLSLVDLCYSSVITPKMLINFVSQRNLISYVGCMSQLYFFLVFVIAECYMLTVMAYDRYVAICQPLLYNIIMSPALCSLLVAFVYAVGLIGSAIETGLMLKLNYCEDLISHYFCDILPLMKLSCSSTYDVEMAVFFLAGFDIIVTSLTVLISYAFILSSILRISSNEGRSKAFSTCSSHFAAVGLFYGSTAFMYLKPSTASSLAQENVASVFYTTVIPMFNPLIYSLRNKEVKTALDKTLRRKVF
From the text: Because the M71 OR is dorsally expressed in the olfactory bulb, any cloned OR using the M71 transgenic backbone will coalesce its axons onto dorsally located glomeruli, which makes them accessible for optical imaging. Optical imaging was therefore used to functionally characterize transgenic M71 projections in the OB. To examine their functional properties odor-evoked activity was imaged from the OBs of mice expressing the genetically encoded activity reporter SpH in all mature OSNs. Simultaneously recordings were obtained from mice that are either hemizygous or homozygous for 4•M71Cα (gene-targeted M71-GFP is out crossed) and heterozygous for SpH and identify red M71 glomeruli. Seven different M71-selective ligands were used from ex vivo analysis of genetically defined M71 OSNs in gene-targeted mice: three of these ligands produced responses by SpH imaging: Acetophenone (ACP), 4-methyl acetophenone (4MACP) and 2,4-dimethyl acetophenone (24dMACP) when delivered at different odor dilutions varying between 0% and 15%. The maximum change in fluorescence [(dF/F)max] per odor concentration was calculated for each compound over a 14 s trial period having a pre-odor (3 s), odor (4 s) and post-odor (4 s) acquisition. dF/F values for all glomeruli were calculated with a standardized 50 μm window, which is fully contained in all imaged glomeruli of both hemi and homo 4•M71Cα animals. (FIG. 2A, FIG. 2B and FIG. 2C: Each data point represents the average (dF/F). of 4-16 glomeruli imaged). […] All imaged mice are heterozygous for omp-SpH.
Olfactometry: Odors (purchased form Sigma Aldrich) were delivered using a custom built olfactometer controlled by an Arduino board with custom shields operating Teflon solenoids (Neptune Research) and connected to two Mass Flow Controllers (Alicat Scientific, Inc) to dilute the clean air (N2, max flow is 2 Lpm) and to dilute the odorized air (max flow is 300 SCCM). Nitrogen (N2) was used as the vapor carrier to avoid oxidation. Odor concentrations are expressed a % dilutions of saturated vapor and as molar saturated vapor concentration (μM s.v.), calculated using published vapor pressures at 25° Celsius (US EPA, Estimation Programs Interface Suite, v 4.0. Flow diluted odors were delivered at 2 Lpm mixed prior to the delivery site with air odorized with varying dilutions of odorant taken from the saturated headspace of pre-cleaned amber vials with white polypropylene closures and septum (J. G. Finneran) containing 99% pure odorants. To avoid contamination of the olfactometer, odorized air was never passed through the Teflon valves. Instead, odors were mixed with N2 in T-shaped mixing chambers (Neptune Research) and delivered to the animal's nose using an arduino controlled vacuum system. […] Output of the olfactometer was calibrated using the tracer odor Pinene and a photoionization detector (PID; Aurora Scientific).
In vivo SpH Imaging: Mice were anesthetized using Ketamine (100 mg/kg)/Xylazin (5 mg/kg) and maintained with Isoflurane (2.5% in 02) and immobilized using a stereotactic head holding device (Narishige, Inc.). Optical signals for SpH and mCherry were recorded using an ANDOR Neo 5.5 sCMOS camera connected to a NIKON AZ100 epifluorescence microscope (NIS Elements) with a 4× objective (numerical aperture 0.4). Excitation wavelengths of 475 nm for SpH and 575 nm for mCherry and emission of 520 nm for SpH and 635 nm for mCherry were used to obtain images of the dorsolateral bulb through thinned skull overlaying the bulb of a freely breathing animal. Each imaging trial consisted of a pre-odor (3 s), odor (4 s) and post-odor (4 s) acquisition, with a total acquisition time per trial of 14 s (including 3 s of valve switch delay). Using serial code, the arduino controlling the olfactometer was integrated in the NIS Elements software, so that the entire image acquisition sequence and flow-diluted odor delivery is controlled by the microscope software. […]

M71 = target: T2, M71 (Mus musculus, UniProt Q60893); settings: previous ex vivo data; liquid phase; cited from earlier work
T2 construct: from ex vivo analysis of genetically defined M71 OSNs in gene-targeted mice; host or cells: dendritic knobs of M71-expressing olfactory sensory neurons from gene-targeted mice
T2 sequence (Q60893 1-309): T1 sequence (Q60893 1-309)

CC(=O)c1ccc(C)cc1C [24dMACP, 2,4-dimethyl acetophenone]
glomerular activity (in vivo SpH imaging) (M71 OR; 4•M71Cα animals, vapor phase, odor dilutions 0% to 15%): observed | average highest (dF/F)max (M71 OR; hemizygous 4•M71Cα animals, ACP at 1.77 uM, 4MACP at 0.69 uM, 24dMACP at 0.66 uM): 4.15% | efficacy [(dF/F)max] (M71 OR; hemizygous animals): 2.92% | efficacy [average (dF/F)max] (M71 OR; hemizygous animals, delivered at the same concentration, ˜0.70 uM): 4.15% | highest efficacy [(dF/F)max] (M71 OR; homozygous 4•M71Cα animals, ACP at 2.66 uM, 4MACP at 0.69 uM, 24dMACP at 0.46 uM): 4.92% | average efficacy (of all concentrations and odors) (M71 OR; homozygous animals): 4.92% | efficacy [(dF/F)max] (M71 OR; homozygous animals): 4.92% | elicit a M71 response ex vivo (M71): did
